Results as given in patent publication US5488035A (priority 1991, dated 1996).
Read-outs that look alike come from different tables or passages of the source. Bridge positions count the residues as written; N and C are the ends. Peptide text beside a SMILES is read from it.

Experiments:
Format in all cases: cell-based
[1] = tested on: Fusarium graminearum, isolate 8 (FGR 008); details: Example 2, scale 0-4
[2] = tested on: Sclerotinia trifoliorum, isolate 1; assay: Antifungal activity score; details: Example 1, 100 μg/ml
Experimental: (§1) The tachyplesin was used at a concentration of 100 μg/ml as determined by absorption spectrum was screened against four common plant pathogens in both crude and oxidized forms. Antifungal activity was scored on a scale of 0 to 4, with 0 being no inhibition observed relative to a water control, and 4 being complete inhibition. Two reps were done for each treatment.

[3] = tested on: Aspergillus flavus, isolate 1 (AFL 001); assay: Antifungal activity score, decreasing concentrations; details: Example 2, scale 0-4
Experimental: as §1, with “treatment. Results were as follows:” for “treatment.”
(§2) Decreasing tested concentrations of tachyplesin were against the preceding four organisms plus Fusarium moniliforme and Sclerotinia sclerotiorum to determine the minimum inhibitory concentration, and this was compared with other antimicrobial compounds.

[4] = tested on: SSC ascospores (Sclerotinia sclerotiorum); assay: as above; details: Example 2, scale 0-4
Experimental: as §1, with “treatment. Results were as follows:” for “treatment.”
as §2

[5] = tested on: FMO 001 (Fusarium moniliforme); assay: as above; details: Example 2, scale 0-4
Experimental: as §1, with “treatment. Results were as follows:” for “treatment.”
as §2

[6] = tested on: SSC 002 (Sclerotinia sclerotiorum); assay: as above; details: Example 2, scale 0-4
Experimental: as §1, with “treatment. Results were as follows:” for “treatment.”
as §2

[7] = tested on: Fusarium graminearum, isolate 5 (FGR 005); details: for Score (antifungal activity), Fusarium graminearum, isolate 5: Example 1, 100 μg/ml; for Score FGR 005: Example 2, scale 0-4
[8] = tested on: FMO 001 (Fusarium moniliforme); assay: Minimum inhibitory concentration; details: MIC Comparisons
From the text: as §2

[9] = tested on: SSC 002 (Sclerotinia sclerotiorum); assay: Minimum inhibitory concentration; details: MIC Comparisons
From the text: as §2

[10] = tested on: AFL 001 (Aspergillus flavus); assay: Minimum inhibitory concentration; details: for MIC AFL 001: MIC Comparisons; for Dependence of MIC on buffer pH, AFL 001: buffer pHs of from 5.0 to 8.0
Experimental: Decreasing tested concentrations of tachyplesin were against the preceding four organisms plus Fusarium moniliforme and Sclerotinia sclerotiorum to determine the minimum inhibitory concentration, and this was compared with other antimicrobial compounds. Results were as follows:
The MICs of tachyplesin, defensin and hordothionin (μg/ml) were measured against FGR 008 and AFL 001 across a range of buffer pHs and ionic strengths to determine their suitability as plant antimicrobials under varying conditions.

[11] = tested on: FGR 008 (Fusarium graminearum)
[12] = tested on: FGR 005 (Fusarium graminearum); details: MIC Comparisons

## tachyplesin [tachyplesin crude]
[1]; 1.56 μg/ml (0.7 μM)
  Score FGR 008: 0.0
[1]; 3.13 μg/ml (1.4 μM)
  Score FGR 008: 0.0
[1]; 6.25 μg/ml (2.8 μM)
  Score FGR 008: 0.0
[1]; 12.5 μg/ml (5.6 μM)
  Score FGR 008: 3.75
[1]; 25 μg/ml (11.1 μM)
  Score FGR 008: 4.0
[1]; 50 μg/ml (22.2 μM)
  Score FGR 008: 4.0
[1]; 100 μg/ml (44.4 μM)
  Score FGR 008: 4.0
[2]
  Score (antifungal activity), Sclerotinia trifoliorum, isolate 1: 4.0
[3]; 1.56 μg/ml (0.7 μM)
  Score AFL 001: 0.0
[3]; 3.13 μg/ml (1.4 μM)
  Score AFL 001: 0.0
[3]; 6.25 μg/ml (2.8 μM)
  Score AFL 001: 0.0
[3]; 12.5 μg/ml (5.6 μM)
  Score AFL 001: 1.0
[3]; 25 μg/ml (11.1 μM)
  Score AFL 001: 1.5
[3]; 50 μg/ml (22.2 μM)
  Score AFL 001: 3.25
[3]; 100 μg/ml (44.4 μM)
  Score AFL 001: 3.5
[4]; 1.56 μg/ml (0.7 μM)
  Score SSC ascospores: 0.0
[4]; 3.13 μg/ml (1.4 μM)
  Score SSC ascospores: 0.0
[4]; 6.25 μg/ml (2.8 μM)
  Score SSC ascospores: 0.0
[4]; 12.5 μg/ml (5.6 μM)
  Score SSC ascospores: 4.0
[4]; 25 μg/ml (11.1 μM)
  Score SSC ascospores: 4.0
[4]; 50 μg/ml (22.2 μM)
  Score SSC ascospores: 4.0
[4]; 100 μg/ml (44.4 μM)
  Score SSC ascospores: 4.0
[5]; 1.56 μg/ml (0.7 μM)
  Score FMO 001: 0.0
[5]; 3.13 μg/ml (1.4 μM)
  Score FMO 001: 0.0
[5]; 6.25 μg/ml (2.8 μM)
  Score FMO 001: 0.5
[5]; 12.5 μg/ml (5.6 μM)
  Score FMO 001: 1.25
[5]; 25 μg/ml (11.1 μM)
  Score FMO 001: 3.75
[5]; 50 μg/ml (22.2 μM)
  Score FMO 001: 4.0
[5]; 100 μg/ml (44.4 μM)
  Score FMO 001: 4.0
[6]; 1.56 μg/ml (0.7 μM)
  Score SSC 002: 0.0
[6]; 3.13 μg/ml (1.4 μM)
  Score SSC 002: 0.0
[6]; 6.25 μg/ml (2.8 μM)
  Score SSC 002: 0.0
[6]; 12.5 μg/ml (5.6 μM)
  Score SSC 002: 1.0
[6]; 25 μg/ml (11.1 μM)
  Score SSC 002: 4.0
[6]; 50 μg/ml (22.2 μM)
  Score SSC 002: 4.0
[6]; 100 μg/ml (44.4 μM)
  Score SSC 002: 4.0
[7]
  Score (antifungal activity), Fusarium graminearum, isolate 5: 4.0
[7]; 1.56 μg/ml (0.7 μM)
  Score FGR 005: 0.0
[7]; 3.13 μg/ml (1.4 μM)
  Score FGR 005: 0.0
[7]; 6.25 μg/ml (2.8 μM)
  Score FGR 005: 1.0
[7]; 12.5 μg/ml (5.6 μM)
  Score FGR 005: 3.0
[7]; 25 μg/ml (11.1 μM)
  Score FGR 005: 4.0
[7]; 50 μg/ml (22.2 μM)
  Score FGR 005: 4.0
[7]; 100 μg/ml (44.4 μM)
  Score FGR 005: 4.0

## CC[C@H](C)[C@@H]1NC(=O)CNC(=O)[C@H](CCCNC(=N)N)NC(=O)[C@H](Cc2ccc(O)cc2)NC(=O)[C@@H]2CSSC[C@H](NC1=O)C(=O)N[C@@H](Cc1ccc(O)cc1)C(=O)N[C@@H](CCCNC(=N)N)C(=O)N[C@@H](CCCNC(=N)N)C(=O)N[C@H](C(=O)N[C@@H](CCCNC(=N)N)C(=O)O)CSSC[C@H](NC(=O)[C@H](Cc1c[nH]c3ccccc13)NC(=O)[C@@H](N)CCCCN)C(=O)N[C@@H](Cc1ccccc1)C(=O)N[C@@H](CCCNC(=N)N)C(=O)N[C@@H](C(C)C)C(=O)N2 [tachyplesin] (H-KWCFRVCYRGICYRRCR-OH; disulfide 3-16, 7-12; N-terminus assumed)
[8]; value before parentheses
  MIC FMO 001: 6.25 µg/mL
[8]; value in parentheses
  MIC FMO 001: 2.8 µM
[9]; value before parentheses
  MIC SSC 002: 12.5 µg/mL
[9]; value in parentheses
  MIC SSC 002: 5.6 µM
[10]; value before parentheses
  MIC AFL 001: 6.25 µg/mL
[10]; value in parentheses
  MIC AFL 001: 2.8 µM
[10]
  Dependence of MIC on buffer pH, AFL 001: None of the antimicrobials showed a discernible trend or optimum
[11]
  Dependence of MIC on buffer pH, FGR 008: None of the antimicrobials showed a discernible trend or optimum

## CMIII
[8]; value before parentheses
  MIC FMO 001: 18.2 µg/mL
[8]; value in parentheses
  MIC FMO 001: 4.6 µM
[9]; value before parentheses
  MIC SSC 002: 24 µg/mL
[9]; value in parentheses
  MIC SSC 002: 6 µM
[10]; value before parentheses
  MIC AFL 001: 60 µg/mL
[10]; value in parentheses
  MIC AFL 001: 15 µM

## hordothionin
[12]; value before parentheses
  MIC FGR 005: 5 µg/mL
[12]; value in parentheses
  MIC FGR 005: 1 µM
[8]; value before parentheses
  MIC FMO 001: 45 µg/mL
[8]; value in parentheses
  MIC FMO 001: 9 µM
[9]; value before parentheses
  MIC SSC 002: 30 µg/mL
[9]; value in parentheses
  MIC SSC 002: 6 µM
[10]; value before parentheses
  MIC AFL 001: 15 µg/mL
[10]; value in parentheses
  MIC AFL 001: 3 µM
[10]
  Dependence of MIC on buffer pH, AFL 001: None of the antimicrobials showed a discernible trend or optimum
[11]; buffer pHs of from 5.0 to 8.0
  Dependence of MIC on buffer pH, FGR 008: None of the antimicrobials showed a discernible trend or optimum

## tachyplesin [tachyplesin oxidized]
[1]; 1.56 μg/ml (0.7 μM)
  Score FGR 008: 0.0
[1]; 3.13 μg/ml (1.4 μM)
  Score FGR 008: 0.0
[1]; 6.25 μg/ml (2.8 μM)
  Score FGR 008: 2.0
[1]; 12.5 μg/ml (5.6 μM)
  Score FGR 008: 4.0
[1]; 25 μg/ml (11.1 μM)
  Score FGR 008: 4.0
[1]; 50 μg/ml (22.2 μM)
  Score FGR 008: 4.0
[1]; 100 μg/ml (44.4 μM)
  Score FGR 008: 4.0
[2]
  Score (antifungal activity), Sclerotinia trifoliorum, isolate 1: 4.0
[3]; 1.56 μg/ml (0.7 μM)
  Score AFL 001: 0.0
[3]; 3.13 μg/ml (1.4 μM)
  Score AFL 001: 0.0
[3]; 6.25 μg/ml (2.8 μM)
  Score AFL 001: 1.0
[3]; 12.5 μg/ml (5.6 μM)
  Score AFL 001: 1.5
[3]; 25 μg/ml (11.1 μM)
  Score AFL 001: 2.75
[3]; 50 μg/ml (22.2 μM)
  Score AFL 001: 3.75
[3]; 100 μg/ml (44.4 μM)
  Score AFL 001: 3.75
[4]; 1.56 μg/ml (0.7 μM)
  Score SSC ascospores: 0.0
[4]; 3.13 μg/ml (1.4 μM)
  Score SSC ascospores: 0.0
[4]; 6.25 μg/ml (2.8 μM)
  Score SSC ascospores: 3.0
[4]; 12.5 μg/ml (5.6 μM)
  Score SSC ascospores: 4.0
[4]; 25 μg/ml (11.1 μM)
  Score SSC ascospores: 4.0
[4]; 50 μg/ml (22.2 μM)
  Score SSC ascospores: 4.0
[4]; 100 μg/ml (44.4 μM)
  Score SSC ascospores: 4.0
[5]; 1.56 μg/ml (0.7 μM)
  Score FMO 001: 0.0
[5]; 3.13 μg/ml (1.4 μM)
  Score FMO 001: 0.5
[5]; 6.25 μg/ml (2.8 μM)
  Score FMO 001: 1.0
[5]; 12.5 μg/ml (5.6 μM)
  Score FMO 001: 2.5
[5]; 25 μg/ml (11.1 μM)
  Score FMO 001: 4.0
[5]; 50 μg/ml (22.2 μM)
  Score FMO 001: 4.0
[5]; 100 μg/ml (44.4 μM)
  Score FMO 001: 4.0
[6]; 1.56 μg/ml (0.7 μM)
  Score SSC 002: 0.0
[6]; 3.13 μg/ml (1.4 μM)
  Score SSC 002: 0.0
[6]; 6.25 μg/ml (2.8 μM)
  Score SSC 002: 0.0
[6]; 12.5 μg/ml (5.6 μM)
  Score SSC 002: 4.0
[6]; 25 μg/ml (11.1 μM)
  Score SSC 002: 4.0
[6]; 50 μg/ml (22.2 μM)
  Score SSC 002: 4.0
[6]; 100 μg/ml (44.4 μM)
  Score SSC 002: 4.0
[7]
  Score (antifungal activity), Fusarium graminearum, isolate 5: 4.0
[7]; 1.56 μg/ml (0.7 μM)
  Score FGR 005: 0.0
[7]; 3.13 μg/ml (1.4 μM)
  Score FGR 005: 0.0
[7]; 6.25 μg/ml (2.8 μM)
  Score FGR 005: 2.25
[7]; 12.5 μg/ml (5.6 μM)
  Score FGR 005: 3.5
[7]; 25 μg/ml (11.1 μM)
  Score FGR 005: 4.0
[7]; 50 μg/ml (22.2 μM)
  Score FGR 005: 4.0
[7]; 100 μg/ml (44.4 μM)
  Score FGR 005: 4.0
